{"source": "paper PMC3848067", "about": "(Acta Naturae, 2013)", "key": {"Salmonella typhimurium": {"system": "Salmonella typhimurium", "conditions": "concentrations of up to 1 mg/dish; cited from earlier work"}, "mouse embryonic cells": {"system": "mouse embryonic cells", "conditions": "doses 50-fold higher than maximum recommended therapeutic dose for humans; cited from earlier work"}, "[1]": {"system": "bone marrow cells of hybrid mice F1(CBAxC57Bl6)", "conditions": "doses 50-fold higher than maximum recommended therapeutic dose for humans; cited from earlier work"}, "[2]": {"conditions": "dogs, cited from earlier work; for AUC / Cmax / Cmax/AUC / MRT / t1/2 / tmax: value for the tested compound (2 or its metabolite AZT)"}, "[3]": {"conditions": "rabbits, single oral dose of 7, 70 and 200 mg/kg; cited from earlier work"}, "[4]": {"conditions": "extrapolated for single-dose oral administration of 600 mg of phosphonate 2"}, "[5]": {"conditions": "dogs, 50 mg (2–5 mg/kg), cited from earlier work"}, "guinea pigs [6]": {"system": "guinea pigs", "conditions": "doses and sensibilization schemes tested; cited from earlier work"}, "dogs": {"system": "dogs", "conditions": "intragastric, 166 mg/kg daily for 4 weeks; cited from earlier work"}, "[7]": {"conditions": "single oral dose of phosphonate 2, 200 mg/kg; cited from earlier work"}, "mice [8]": {"system": "mice", "conditions": "cited from earlier work"}, "[9]": {"conditions": "rats, oral, 20 mg/kg; cited from earlier work"}, "MT-4 cells": {"system": "MT-4 cells", "conditions": "MT-4 cell line; cited from earlier work"}, "[10]": {"conditions": "cited from earlier work"}, "rats [11]": {"system": "rats", "conditions": "intragastric, 133 and 266 mg/kg daily for 3 months; cited from earlier work"}, "[12]": {"conditions": "rats, intraperitoneal, 20 mg/kg; parameters of phosphonate 2; cited from earlier work"}, "[13]": {"conditions": "canine whole blood at 37°С; cited from earlier work"}, "[14]": {"conditions": "rabbits; cited from earlier work"}, "mice [15]": {"system": "mice", "conditions": "cited from earlier work", "remark": "listed apart in the source"}, "cultured cells": {"system": "cultured cells", "conditions": "cited from earlier work"}, "[16]": {"assay": "pharmacokinetics after single-dose oral administration to dogs", "conditions": "comparison from Table 2"}, "mice [17]": {"system": "mice", "conditions": "cited from earlier work", "remark": "listed apart in the source"}, "HIV-1": {"system": "HIV-1", "conditions": "cited from earlier work"}, "rats [18]": {"system": "rats", "conditions": "Wistar rats, intragastric 133 mg/kg daily, 10 weeks males and 2 weeks females; cited from earlier work"}, "guinea pigs [19]": {"system": "guinea pigs", "conditions": "sensibilizing doses 133 and 266 mg/kg, provoking dose 266 mg/kg on days 14 and 21; cited from earlier work"}, "[20]": {"conditions": "rabbits, oral course, 1 g in 4–5 ml of water, after 6 and 18 h during 5 days; cited from earlier work"}, "rats [21]": {"system": "rats", "conditions": "cited from earlier work"}, "pregnant female rats": {"system": "pregnant female rats", "conditions": "intragastric 133 mg/kg daily on days 1–19 of gestation; cited from earlier work"}, "[22]": {"conditions": "single oral dose of capsules of 2, 10 mg/kg"}, "[23]": {"conditions": "single oral dose of capsules of 2, 20 mg/kg"}, "[24]": {"conditions": "single oral dose of capsules of 2, 40 mg/kg"}}, "note": "Read-outs that look alike come from different tables or passages of the source.", "data": [{"smiles": "Cc1cn([C@H]2C[C@H](N=[N+]=[N-])[C@@H](COP(=O)(O)C(N)=O)O2)c(=O)[nH]c1=O", "note": "[Compound 2, AZT 5’-aminocarbonyl phosphonate]", "values": [{"measurement": "number of revertants in the Ames test", "setting": "Salmonella typhimurium", "result": "does not increase the number of revertants"}, {"measurement": "dominant lethal mutations in mouse embryonic cells", "setting": "mouse embryonic cells", "result": "nor affected the number of dominant lethal mutations"}, {"measurement": "chromosomal aberrations in mouse bone marrow cells", "setting": "[1]", "result": "neither caused an increase in the number of chromosomal aberrations"}, {"measurement": "bioavailability of 5’-aminocarbonyl phosphonate 2", "setting": "[2]; administered orally at specified doses", "result": 4.7, "unit": "%"}, {"measurement": "bioavailability of AZT after 2 had been administered orally", "setting": "[2]; oral", "result": 8, "unit": "%"}, {"measurement": "AUC", "setting": "[2]; [22]", "result": "0.47 ± 0.15", "unit": "µg·h/mL"}, {"measurement": "Cmax", "setting": "[2]; [22]", "result": "0.31 ± 0.09", "unit": "µg/mL"}, {"measurement": "Cmax/AUC", "setting": "[2]; [22]", "result": "0.662 ± 0.066", "unit": "h⁻¹"}, {"measurement": "MRT", "setting": "[2]; [22]", "result": "2.43 ± 0.04", "unit": "h"}, {"measurement": "t1/2", "setting": "[2]; [22]", "result": "0.62 ± 0.1", "unit": "h"}, {"measurement": "tmax", "setting": "[2]; [22]", "result": "1.5 ± 0.25", "unit": "h"}, {"measurement": "AUC", "setting": "[2]; [23]", "result": "0.98 ± 0.44", "unit": "µg·h/mL"}, {"measurement": "Cmax", "setting": "[2]; [23]", "result": "0.51 ± 0.18", "unit": "µg/mL"}, {"measurement": "Cmax/AUC", "setting": "[2]; [23]", "result": "0.561 ± 0.122", "unit": "h⁻¹"}, {"measurement": "MRT", "setting": "[2]; [23]", "result": "2.65 ± 0.16", "unit": "h"}, {"measurement": "t1/2", "setting": "[2]; [23]", "result": "0.81 ± 0.2", "unit": "h"}, {"measurement": "tmax", "setting": "[2]; [23]", "result": "1.6 ± 0.2", "unit": "h"}, {"measurement": "AUC", "setting": "[2]; [24]", "result": "1.25 ± 0.86", "unit": "µg·h/mL"}, {"measurement": "Cmax", "setting": "[2]; [24]", "result": "0.51 ± 0.26", "unit": "µg/mL"}, {"measurement": "Cmax/AUC", "setting": "[2]; [24]", "result": "0.478 ± 0.117", "unit": "h⁻¹"}, {"measurement": "MRT", "setting": "[2]; [24]", "result": "2.87 ± 0.49", "unit": "h"}, {"measurement": "t1/2", "setting": "[2]; [24]", "result": "0.59 ± 0.2", "unit": "h"}, {"measurement": "tmax", "setting": "[2]; [24]", "result": "1.75 ± 0.27", "unit": "h"}, {"measurement": "tmax of AZT", "setting": "[2]; single oral dose of the named compound equivalent to 20 mg of AZT/kg", "result": 4, "unit": "h"}, {"measurement": "presence of AZT in blood", "setting": "[3]", "result": "AZT is present in the blood in all the cases"}, {"measurement": "expected AZT concentration in human blood plasma", "setting": "[4]", "result": "100 to 115", "unit": "ng/mL"}, {"measurement": "AZT in blood plasma after intravenous administration", "setting": "[5]", "result": "No AZT has been detected"}, {"measurement": "AUC t", "setting": "[5]; intravenous, parameters of 2", "result": 2.19, "unit": "µg·h/mL"}, {"measurement": "CL", "setting": "[5]; intravenous, parameters of 2", "result": 16.8, "unit": "L/h"}, {"measurement": "MRT", "setting": "[5]; intravenous, parameters of 2", "result": 0.74, "unit": "h"}, {"measurement": "Vss", "setting": "[5]; intravenous, parameters of 2", "result": 12.4, "unit": "L"}, {"measurement": "t1/2", "setting": "[5]; intravenous, parameters of 2", "result": 0.35, "unit": "h"}, {"measurement": "allergic effect in type III hypersensitivity reaction", "setting": "guinea pigs [6]", "result": "no allergic effect"}, {"measurement": "tolerability, capsules", "setting": "dogs", "result": "well-tolerated by the animals"}, {"measurement": "original substance in daily urine and feces", "setting": "[7]", "result": "could not be detected"}, {"measurement": "mean lethal dose (LD50)", "setting": "mice [8]; intraperitoneal administration to mice", "result": "≥ 5000", "unit": "mg/kg"}, {"measurement": "signs after single-dose administration at toxic doses", "setting": "mice [8]; mice, 2000–50000 mg/kg", "result": "short-term agitation in animals replaced by distress, inertness and adynamia"}, {"measurement": "original phosphonate 2 in blood plasma", "setting": "[9]", "result": "No original phosphonate 2 was detected"}, {"measurement": "toxicity, times lower than that of AZT", "setting": "MT-4 cells", "result": "34–50 times"}, {"measurement": "toxicity, times lower than that of phosphazide", "setting": "MT-4 cells", "result": "12.5–15 times"}, {"measurement": "half-life in 100% human blood serum", "setting": "[10]", "result": "over 6 h"}, {"measurement": "tolerability, chronic administration", "setting": "rats [11]", "result": "well-tolerated by animals"}, {"measurement": "AUC0–t", "setting": "[12]", "result": 8.02, "unit": "µg·h/mL"}, {"measurement": "MRT", "setting": "[12]", "result": 0.82, "unit": "h"}, {"measurement": "Vss", "setting": "[12]", "result": 0.37, "unit": "L"}, {"measurement": "t1/2", "setting": "[12]", "result": 0.42, "unit": "h"}, {"measurement": "СL", "setting": "[12]", "result": 0.45, "unit": "L/h"}, {"measurement": "Т1/2 in canine whole blood", "setting": "[13]", "result": "> 24", "unit": "h"}, {"measurement": "AZT in peripheral blood after intravenous administration", "setting": "[14]", "result": "AZT has not been detected"}, {"measurement": "popliteal lymph node reaction", "setting": "mice [15]", "result": "not to affect the popliteal lymph node reaction"}, {"measurement": "efficiency of penetration into cells, times lower than that of AZT", "setting": "cultured cells", "result": "10–100 times"}, {"measurement": "efficiency of penetration into cells, times lower than that of phosphazide", "setting": "cultured cells", "result": "approximately 6 times"}, {"measurement": "Cmax of AZT, times lower than for phosphazide", "setting": "[16]", "result": 2.5, "unit": "times"}, {"measurement": "primary immune response", "setting": "mice [17]; F1(CBAxC57BI6) mice, 332 mg/kg", "result": "reduced the primary immune response to a certain extent"}, {"measurement": "hypersensitivity of the decelerated type reaction", "setting": "mice [17]; mice, 166 and 332 mg/kg", "result": "nor the hypersensitivity of the decelerated type reaction"}, {"measurement": "number of nuclear cells in spleen", "setting": "mice [17]; mice, 166 and 332 mg/kg", "result": "affects neither the number of nuclear cells in spleen"}, {"measurement": "antiviral activity (inhibition of viral replication) relative to AZT", "setting": "HIV-1; HIV-infected MT-4 cells", "result": "inferior to that of AZT by about an order of magnitude"}, {"measurement": "antiviral activity, times lower than that of phosphazide", "setting": "HIV-1; MT-4 cell line", "result": "3–4.5 times"}, {"measurement": "selectivity index compared to AZT and phosphazide", "setting": "HIV-1; MT-4 cell line", "result": "higher"}, {"measurement": "effect on animal reproduction function", "setting": "rats [18]", "result": "no effects"}, {"measurement": "anaphylactic shock", "setting": "guinea pigs [19]", "result": "no anaphylactic shock"}, {"measurement": "accumulation in blood", "setting": "[20]", "result": "gradual accumulation"}, {"measurement": "signs after single-dose administration at toxic doses", "setting": "rats [21]; rats, 2000–50000 mg/kg", "result": "short-term agitation in animals replaced by distress, inertness and adynamia"}, {"measurement": "LD50", "setting": "rats [21]; single-dose intragastric administration to rats", "result": "higher than 40 g/kg"}, {"measurement": "embryotoxic and teratogenic effects", "setting": "pregnant female rats", "result": "neither embryotoxic nor teratogenic effects"}]}]}
